Experimental data reported in PubChem BioAssay (NCI).
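Method: 48-hour compound exposure of cells in 96-well plates, five concentrations, linear interpolation of endpoints. TGI: concentration producing complete growth inhibition.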

Experiments:
Test in all cases: NCI-60 cell line screen, 48 h
786-0 renal = test system: 786-0 renal
A498 renal = test system: A498 renal
A549 NSCLC = test system: A549 NSCLC
ACHN renal = test system: ACHN renal
BT-549 breast = test system: BT-549 breast
CAKI-1 renal = test system: CAKI-1 renal
CCRF-CEM leukemia = test system: CCRF-CEM leukemia
COLO 205 colon = test system: COLO 205 colon
EKVX NSCLC = test system: EKVX NSCLC
HCC-2998 colon = test system: HCC-2998 colon
HCT-116 colon = test system: HCT-116 colon
HCT-15 colon = test system: HCT-15 colon
HOP-62 NSCLC = test system: HOP-62 NSCLC
HOP-92 NSCLC = test system: HOP-92 NSCLC
HT29 colon = test system: HT29 colon
IGROV1 ovarian = test system: IGROV1 ovarian
K-562 leukemia = test system: K-562 leukemia
KM12 colon = test system: KM12 colon
LOX IMVI melanoma = test system: LOX IMVI melanoma
M14 melanoma = test system: M14 melanoma
MALME-3M melanoma = test system: MALME-3M melanoma
MCF7 breast = test system: MCF7 breast
MDA-MB-231 breast = test system: MDA-MB-231 breast
MDA-MB-435 = test system: MDA-MB-435
MDA-N = test system: MDA-N
MOLT-4 leukemia = test system: MOLT-4 leukemia
NCI-H226 lung = test system: NCI-H226 lung
NCI-H460 lung = test system: NCI-H460 lung
NCI-H522 lung = test system: NCI-H522 lung
NCI/ADR-RES ovarian = test system: NCI/ADR-RES ovarian
OVCAR-4 ovarian = test system: OVCAR-4 ovarian
OVCAR-5 ovarian = test system: OVCAR-5 ovarian
OVCAR-8 ovarian = test system: OVCAR-8 ovarian
PC-3 prostate = test system: PC-3 prostate
RPMI-8226 leukemia = test system: RPMI-8226 leukemia
RXF 393 renal = test system: RXF 393 renal
SF-268 CNS = test system: SF-268 CNS
SF-295 CNS = test system: SF-295 CNS
SF-539 CNS = test system: SF-539 CNS
SK-MEL-2 melanoma = test system: SK-MEL-2 melanoma
SK-MEL-5 melanoma = test system: SK-MEL-5 melanoma
SK-OV-3 ovarian = test system: SK-OV-3 ovarian
SN12C renal = test system: SN12C renal
SNB-19 CNS = test system: SNB-19 CNS
SNB-75 CNS = test system: SNB-75 CNS
SW-620 colon = test system: SW-620 colon
TK-10 renal = test system: TK-10 renal
U251 CNS = test system: U251 CNS
UACC-257 melanoma = test system: UACC-257 melanoma
UACC-62 melanoma = test system: UACC-62 melanoma
HL-60(TB) leukemia = test system: HL-60(TB) leukemia
HS 578T breast = test system: HS 578T breast
NCI-H23 lung = test system: NCI-H23 lung
OVCAR-3 ovarian = test system: OVCAR-3 ovarian
SR leukemia = test system: SR leukemia
T-47D breast = test system: T-47D breast
DU-145 prostate = test system: DU-145 prostate
SK-MEL-28 melanoma = test system: SK-MEL-28 melanoma
UO-31 renal = test system: UO-31 renal

## CN1Cc2cc3cc4c(cc3nc2N(C)C1)OCCO4
786-0 renal
  TGI: > 100 µM
A498 renal
  TGI: > 100 µM
A549 NSCLC
  TGI: > 100 µM
ACHN renal
  TGI: > 100 µM
BT-549 breast
  TGI: > 100 µM
CAKI-1 renal
  TGI: > 100 µM
CCRF-CEM leukemia
  TGI: > 100 µM
COLO 205 colon
  TGI: > 100 µM
EKVX NSCLC
  TGI: > 100 µM
HCC-2998 colon
  TGI: > 100 µM
HCT-116 colon
  TGI: > 100 µM
HCT-15 colon
  TGI: > 100 µM
HOP-62 NSCLC
  TGI: > 100 µM
HOP-92 NSCLC
  TGI: > 100 µM
HT29 colon
  TGI: > 100 µM
IGROV1 ovarian
  TGI: > 100 µM
K-562 leukemia
  TGI: > 100 µM
KM12 colon
  TGI: > 100 µM
LOX IMVI melanoma
  TGI: > 100 µM
M14 melanoma
  TGI: > 100 µM
MALME-3M melanoma
  TGI: > 100 µM
MCF7 breast
  TGI: > 100 µM
MDA-MB-231 breast
  TGI: > 100 µM
MDA-MB-435
  TGI: > 100 µM
MDA-N
  TGI: > 100 µM
MOLT-4 leukemia
  TGI: > 100 µM
NCI-H226 lung
  TGI: > 100 µM
NCI-H460 lung
  TGI: > 100 µM
NCI-H522 lung
  TGI: > 100 µM
NCI/ADR-RES ovarian
  TGI: > 100 µM
OVCAR-4 ovarian
  TGI: > 100 µM
OVCAR-5 ovarian
  TGI: > 100 µM
OVCAR-8 ovarian
  TGI: > 100 µM
PC-3 prostate
  TGI: > 100 µM
RPMI-8226 leukemia
  TGI: > 100 µM
RXF 393 renal
  TGI: > 100 µM
SF-268 CNS
  TGI: > 100 µM
SF-295 CNS
  TGI: > 100 µM
SF-539 CNS
  TGI: > 100 µM
SK-MEL-2 melanoma
  TGI: > 100 µM
SK-MEL-5 melanoma
  TGI: > 100 µM
SK-OV-3 ovarian
  TGI: > 100 µM
SN12C renal
  TGI: > 100 µM
SNB-19 CNS
  TGI: > 100 µM
SNB-75 CNS
  TGI: > 100 µM
SW-620 colon
  TGI: > 100 µM
TK-10 renal
  TGI: > 100 µM
U251 CNS
  TGI: > 100 µM
UACC-257 melanoma
  TGI: > 100 µM
UACC-62 melanoma
  TGI: > 100 µM

## Cc1cc(-c2cccc3ccccc23)c(C#N)c(=S)n1C1OC(CO)C(O)C(O)C1O (stereo not drawn)
786-0 renal
  TGI: > 100 µM
A498 renal
  TGI: > 100 µM
A549 NSCLC
  TGI: > 100 µM
ACHN renal
  TGI: > 100 µM
CAKI-1 renal
  TGI: > 100 µM
CCRF-CEM leukemia
  TGI: > 100 µM
COLO 205 colon
  TGI: > 100 µM
EKVX NSCLC
  TGI: > 100 µM
HCC-2998 colon
  TGI: > 100 µM
HCT-116 colon
  TGI: > 100 µM
HCT-15 colon
  TGI: > 100 µM
HL-60(TB) leukemia
  TGI: > 100 µM
HOP-62 NSCLC
  TGI: > 100 µM
HS 578T breast
  TGI: > 100 µM
HT29 colon
  TGI: > 100 µM
IGROV1 ovarian
  TGI: > 100 µM
KM12 colon
  TGI: > 100 µM
LOX IMVI melanoma
  TGI: > 100 µM
M14 melanoma
  TGI: > 100 µM
MALME-3M melanoma
  TGI: > 100 µM
MCF7 breast
  TGI: > 100 µM
MDA-MB-231 breast
  TGI: > 100 µM
MDA-MB-435
  TGI: > 100 µM
MDA-N
  TGI: > 100 µM
MOLT-4 leukemia
  TGI: > 100 µM
NCI-H226 lung
  TGI: > 100 µM
NCI-H23 lung
  TGI: > 100 µM
NCI-H460 lung
  TGI: > 100 µM
NCI/ADR-RES ovarian
  TGI: > 100 µM
OVCAR-3 ovarian
  TGI: > 100 µM
OVCAR-4 ovarian
  TGI: > 100 µM
OVCAR-5 ovarian
  TGI: > 100 µM
OVCAR-8 ovarian
  TGI: > 100 µM
PC-3 prostate
  TGI: > 100 µM
RXF 393 renal
  TGI: > 100 µM
SF-295 CNS
  TGI: > 100 µM
SF-539 CNS
  TGI: > 100 µM
SK-MEL-2 melanoma
  TGI: > 100 µM
SK-MEL-5 melanoma
  TGI: > 100 µM
SK-OV-3 ovarian
  TGI: > 100 µM
SN12C renal
  TGI: > 100 µM
SNB-75 CNS
  TGI: 47.5 µM
SR leukemia
  TGI: > 100 µM
SW-620 colon
  TGI: > 100 µM
T-47D breast
  TGI: > 100 µM
TK-10 renal
  TGI: > 100 µM
UACC-257 melanoma
  TGI: > 100 µM
UACC-62 melanoma
  TGI: > 100 µM

## O=C1/C(=c2\s/c(=C\c3ccccc3)c(=O)n2-c2ccccc2)SC(=S)N1c1ccccc1
786-0 renal
  TGI: > 100 µM
A498 renal
  TGI: > 100 µM
A549 NSCLC
  TGI: > 100 µM
ACHN renal
  TGI: 76.2 µM
CAKI-1 renal
  TGI: > 100 µM
CCRF-CEM leukemia
  TGI: > 100 µM
COLO 205 colon
  TGI: > 100 µM
DU-145 prostate
  TGI: > 100 µM
EKVX NSCLC
  TGI: > 100 µM
HCC-2998 colon
  TGI: > 100 µM
HCT-116 colon
  TGI: > 100 µM
HCT-15 colon
  TGI: > 100 µM
HL-60(TB) leukemia
  TGI: > 100 µM
HOP-92 NSCLC
  TGI: > 100 µM
HS 578T breast
  TGI: > 100 µM
HT29 colon
  TGI: > 100 µM
IGROV1 ovarian
  TGI: 87.2 µM
K-562 leukemia
  TGI: > 100 µM
KM12 colon
  TGI: > 100 µM
LOX IMVI melanoma
  TGI: > 100 µM
M14 melanoma
  TGI: > 100 µM
MALME-3M melanoma
  TGI: > 100 µM
MCF7 breast
  TGI: > 100 µM
MDA-MB-231 breast
  TGI: 57.1 µM
MDA-MB-435
  TGI: > 100 µM
MDA-N
  TGI: > 100 µM
MOLT-4 leukemia
  TGI: > 100 µM
NCI-H226 lung
  TGI: 89.4 µM
NCI-H23 lung
  TGI: > 100 µM
NCI-H460 lung
  TGI: > 100 µM
NCI/ADR-RES ovarian
  TGI: 96.8 µM
OVCAR-3 ovarian
  TGI: 88.8 µM
OVCAR-4 ovarian
  TGI: > 100 µM
OVCAR-5 ovarian
  TGI: > 100 µM
OVCAR-8 ovarian
  TGI: > 100 µM
PC-3 prostate
  TGI: > 100 µM
RPMI-8226 leukemia
  TGI: > 100 µM
RXF 393 renal
  TGI: > 100 µM
SF-268 CNS
  TGI: > 100 µM
SF-295 CNS
  TGI: > 100 µM
SF-539 CNS
  TGI: 55.6 µM
SK-MEL-2 melanoma
  TGI: > 100 µM
SK-MEL-28 melanoma
  TGI: > 100 µM
SK-MEL-5 melanoma
  TGI: > 100 µM
SK-OV-3 ovarian
  TGI: 52.1 µM
SN12C renal
  TGI: > 100 µM
SNB-19 CNS
  TGI: > 100 µM
SNB-75 CNS
  TGI: > 100 µM
SR leukemia
  TGI: > 100 µM
SW-620 colon
  TGI: > 100 µM
TK-10 renal
  TGI: > 100 µM
U251 CNS
  TGI: 81.1 µM
UACC-257 melanoma
  TGI: > 100 µM
UACC-62 melanoma
  TGI: > 100 µM

## NC(=O)Nc1ccc(S(=O)(=O)Nc2ccc(S(N)(=O)=O)cc2)cc1
786-0 renal
  TGI: > 100 µM
A498 renal
  TGI: > 100 µM
A549 NSCLC
  TGI: > 100 µM
ACHN renal
  TGI: > 100 µM
BT-549 breast
  TGI: > 100 µM
CAKI-1 renal
  TGI: > 100 µM
CCRF-CEM leukemia
  TGI: > 100 µM
COLO 205 colon
  TGI: > 100 µM
DU-145 prostate
  TGI: > 100 µM
EKVX NSCLC
  TGI: > 100 µM
HCT-116 colon
  TGI: > 100 µM
HCT-15 colon
  TGI: > 100 µM
HOP-62 NSCLC
  TGI: > 100 µM
HOP-92 NSCLC
  TGI: > 100 µM
HT29 colon
  TGI: > 100 µM
IGROV1 ovarian
  TGI: > 100 µM
K-562 leukemia
  TGI: > 100 µM
KM12 colon
  TGI: > 100 µM
LOX IMVI melanoma
  TGI: > 100 µM
M14 melanoma
  TGI: > 100 µM
MALME-3M melanoma
  TGI: > 100 µM
MCF7 breast
  TGI: > 100 µM
MDA-MB-231 breast
  TGI: > 100 µM
MDA-MB-435
  TGI: > 100 µM
MDA-N
  TGI: > 100 µM
NCI-H226 lung
  TGI: > 100 µM
NCI-H23 lung
  TGI: > 100 µM
NCI-H460 lung
  TGI: > 100 µM
NCI-H522 lung
  TGI: > 100 µM
NCI/ADR-RES ovarian
  TGI: > 100 µM
OVCAR-3 ovarian
  TGI: > 100 µM
OVCAR-4 ovarian
  TGI: > 100 µM
OVCAR-5 ovarian
  TGI: > 100 µM
OVCAR-8 ovarian
  TGI: > 100 µM
PC-3 prostate
  TGI: > 100 µM
RPMI-8226 leukemia
  TGI: > 100 µM
RXF 393 renal
  TGI: > 100 µM
SF-268 CNS
  TGI: 2.59 µM
SF-295 CNS
  TGI: > 100 µM
SK-MEL-2 melanoma
  TGI: > 100 µM
SK-MEL-28 melanoma
  TGI: > 100 µM
SK-MEL-5 melanoma
  TGI: > 100 µM
SN12C renal
  TGI: > 100 µM
SNB-19 CNS
  TGI: > 100 µM
SW-620 colon
  TGI: > 100 µM
T-47D breast
  TGI: > 100 µM
TK-10 renal
  TGI: > 100 µM
U251 CNS
  TGI: > 100 µM
UACC-257 melanoma
  TGI: > 100 µM
UACC-62 melanoma
  TGI: > 100 µM
UO-31 renal
  TGI: > 100 µM
